Measured values published in patent publication US20190031676A1, “ANTIBACTERIAL ANNULATED PYRROLIDIN-2-ONE DERIVATIVES” (priority 2015, published 2019).
Converted amounts (≈) assume the structure as drawn. Read-outs that look alike come from different tables or passages of the source.

Assays:
Assay type in all cases: cell-based
[1] = test system: K. pneumoniae A-651; assay: Bacterial growth minimal inhibitory concentration (microdilution, cation-adjusted Mueller-Hinton Broth); conditions: multiply-resistant strain (in particular quinolone-resistant); for MIC: Klebsiella pneumoniae, A651
Experimental: (§1) Minimal Inhibitory Concentrations (MICs; mg/L) were determined in cation-adjusted Mueller-Hinton Broth by a microdilution method following the description given in “Methods for Dilution Antimicrobial Susceptibility Tests for Bacteria that grow Aerobically”, Approved standard, 7th ed., Clinical and Laboratory Standards Institute (CLSI) Document M7-A7, Wayne, Pa., USA (2006).
(§2) All Example compounds were tested against several Gram-positive and Gram-negative bacteria. […] K. pneumoniae A-651 is a multiply-resistant strain (in particular quinolone-resistant), while E. coli ATCC25922 and P. aeruginosa ATCC27853 are quinolone-sensitive strains.

[2] = test system: P. aeruginosa ATCC27853; assay: as above; conditions: quinolone-sensitive strain; for MIC: Pseudomonas aeruginosa, ATCC27853
Experimental: as §1, §2

[3] = test system: E. coli ATCC25922; assay: as above; conditions: quinolone-sensitive strain; for MIC: Escherichia coli, ATCC25922
Experimental: as §1, §2

[4] = test system: wild-type E. coli A-1261; assay: MIC against wild-type E. coli A-1261 with or without alkaline phosphatase or esterase (prodrug activation); conditions: Escherichia coli
Experimental: Minimal Inhibitory Concentrations (MICs; mg/L) were determined in cation-adjusted Mueller-Hinton Broth by a microdilution method following the description given in “Methods for Dilution Antimicrobial Susceptibility Tests for Bacteria that grow Aerobically”, Approved standard, 7th ed., Clinical and Laboratory Standards Institute (CLSI) Document M7-A7, Wayne, Pa., USA (2006). The compounds of Examples 4 and 16 were tested against wild-type E. coli A-1261 in the absence of alkaline phosphatase or esterase, in the presence of an alkaline phosphatase, and in the presence of an esterase. The corresponding antibacterial test results are given in Table 2 hereafter (MICs in mg/L).

Row | SMILES | MIC [1] [µg/mL] | MIC [2] [µg/mL] | MIC [3] [µg/mL] | also measured
1 | C[C@@](CCN1Cc2cc(C#CC#CCOC(=O)N3CC(O)C3)sc2C1=O)(C(=O)NO)S(C)(=O)=O [Example 6, (3R)-5-(5-(4-(hydroxyamino)-3-methyl-3-(methylsulfonyl)-4-oxobutyl)-6-oxo-5,6-dihydro-4H-thieno[2,3-c]pyrrol-2-yl)penta-2,4-diyn-1-yl 3-hydroxyazetidine-1-carboxylate] | 1 (≈ 1.96 µM) | 2 (≈ 3.92 µM) | 1 (≈ 1.96 µM) | 
2 | C[C@@](CCN1Cc2cc(C#CC#CC3CN(CCF)C3)sc2C1=O)(C(=O)NO)S(C)(=O)=O [Example 23, (2R)-4-(2-((1-(2-fluoroethyl)azetidin-3-yl)buta-1,3-diyn-1-yl)-6-oxo-4,6-dihydro-5H-thieno[2,3-c]pyrrol-5-yl)-N-hydroxy-2-methyl-2-(methylsulfonyl)butanamide] | 0.25 (≈ 0.519 µM) | 1 (≈ 2.08 µM) | 0.063 (≈ 0.131 µM) | 
3 | C[C@@](CCN1Cc2cc(C#CC#CC3CN(CC4COC4)C3)sc2C1=O)(C(=O)NO)S(C)(=O)=O [Example 28, (2R)—N-hydroxy-2-methyl-2-(methylsulfonyl)-4-(2-((1-(oxetan-3-ylmethyl)azetidin-3-yl)buta-1,3-diyn-1-yl)-6-oxo-4,6-dihydro-5H-thieno[2,3-c]pyrrol-5-yl)butanamide] | 0.5 (≈ 0.989 µM) | 2 (≈ 3.96 µM) | 0.25 (≈ 0.494 µM) | 
4 | CN1CC(C#CC#Cc2cc3c(s2)C(=O)N(CC[C@](C)(C(=O)NO)S(C)(=O)=O)C3)C1 [Example 11, (2R)—N-hydroxy-2-methyl-4-(2-((1-methylazetidin-3-yl)buta-1,3-diyn-1-yl)-6-oxo-4,6-dihydro-5H-thieno[2,3-c]pyrrol-5-yl)-2-(methylsulfonyl)butanamide] | 1 (≈ 2.22 µM) | 0.5 (≈ 1.11 µM) | 0.25 (≈ 0.556 µM) | 
5 | C[C@@](CCN1Cc2cc(C#CC#CC3CN(C4CCOCC4)C3)sc2C1=O)(C(=O)NO)S(C)(=O)=O [Example 27, (2R)—N-hydroxy-2-methyl-2-(methylsulfonyl)-4-(6-oxo-2-((1-(tetrahydro-2H-pyran-4-yl)azetidin-3-yl)buta-1,3-diyn-1-yl)-4,6-dihydro-5H-thieno[2,3-c]pyrrol-5-yl)butanamide] | 0.25 (≈ 0.481 µM) | 1 (≈ 1.92 µM) | 0.125 (≈ 0.241 µM) | 
6 | CNC1(C#CC#Cc2ccc3c(c2)CN(CC[C@](C)(C(=O)NO)S(C)(=O)=O)C3=O)CC1 [Example 7, (2R)—N-hydroxy-2-methyl-4-(5-((1-(methylamino)cyclopropyl)buta-1,3-diyn-1-yl)-1-oxoisoindolin-2-yl)-2-(methylsulfonyl)butanamide] | 1 (≈ 2.25 µM) | 2 (≈ 4.51 µM) | 0.25 (≈ 0.564 µM) | 
7 | C[C@@](CCN1Cc2cc(C#Cc3ccc(CN4CC(F)C4)cc3)sc2C1=O)(C(=O)NO)S(C)(=O)=O [Example 14, (2R)-4-(2-((4-((3-fluoroazetidin-1-yl)methyl)phenyl)ethynyl)-6-oxo-4,6-dihydro-5H-thieno[2,3-c]pyrrol-5-yl)-N-hydroxy-2-methyl-2-(methylsulfonyl)butanamide] | 0.25 (≈ 0.481 µM) | 2 (≈ 3.85 µM) | 0.031 (≈ 0.0597 µM) | 
8 | CC(CCN1Cc2cc(C#CC#CC3(CO)CC3)sc2C1=O)(C(=O)NO)S(C)(=O)=O (racemic) [Reference Example 2, (2RS)—N-hydroxy-4-(2-((1-(hydroxymethyl)cyclopropyl)buta-1,3-diyn-1-yl)-6-oxo-4,6-dihydro-5H-thieno[2,3-c]pyrrol-5-yl)-2-methyl-2-(methylsulfonyl)butanamide] | 2 (≈ 4.44 µM) | 2 (≈ 4.44 µM) | 1 (≈ 2.22 µM) | 
9 | C[C@@](CCN1Cc2cc(C#CC#C[C@H]3C[C@]3(F)COP(=O)(O)O)sc2C1=O)(C(=O)NO)S(C)(=O)=O [Example 16, ((1R,2R)-1-fluoro-2-((5-((3R)-4-(hydroxyamino)-3-methyl-3-(methylsulfonyl)-4-oxobutyl)-6-oxo-5,6-dihydro-4H-thieno[2,3-c]pyrrol-2-yl)buta-1,3-diyn-1-yl)cyclopropyl)methyl dihydrogen phosphate] |  |  |  | MIC ([4]; alkaline phosphatase 2 i.U./mL, read-out: MIC for E. coli A-1261 In the presence of an alkaline phosphatase (2 i.U./mL)): 0.25 µg/mL; MIC ([4]; esterase 10 i.U./mL, read-out: MIC for E. coli A-1261 In the presence of an esterase (10 i.U./mL)): > 8 µg/mL; MIC ([4]; no alkaline phosphatase or esterase, read-out: MIC for E. coli A-1261 In the absence of alkaline phosphatase or esterase): > 8 µg/mL
10 | CC(C)(O)CN1CC(C#CC#Cc2cc3c(s2)C(=O)N(CC[C@](C)(C(=O)NO)S(C)(=O)=O)C3)C1 [Example 25, (2R)—N-hydroxy-4-(2-((1-(2-hydroxy-2-methylpropyl)azetidin-3-yl)buta-1,3-diyn-1-yl)-6-oxo-4,6-dihydro-5H-thieno[2,3-c]pyrrol-5-yl)-2-methyl-2-(methylsulfonyl)butanamide] | 1 (≈ 1.97 µM) | 1 (≈ 1.97 µM) | 1 (≈ 1.97 µM) | 
11 | C[C@@](CCN1Cc2cc(C#CC#C[C@@H]3C[C@@H](O)[C@@H](O)C3)sc2C1=O)(C(=O)NO)S(C)(=O)=O [Example 21, (2R)-4-(2-(((1S,3R,4S)-3,4-dihydroxycyclopentyl)buta-1,3-diyn-1-yl)-6-oxo-4,6-dihydro-5H-thieno[2,3-c]pyrrol-5-yl)-N-hydroxy-2-methyl-2-(methylsulfonyl)butanamide] |  |  |  | MIC for K. Pneumoniae A-651 [1]: 2 µg/mL; MIC for P. aeruginosa ATCC27853 [2]: 1 µg/mL; MIC for E. coli ATCC25922 [3]: 0.5 µg/mL
12 | C[C@@](CCN1Cc2cc(C#CC#CC3CN(CCO)C3)sc2C1=O)(C(=O)NO)S(C)(=O)=O [Example 17, (2R)—N-hydroxy-4-(2-((1-(2-hydroxyethyl)azetidin-3-yl)buta-1,3-diyn-1-yl)-6-oxo-4,6-dihydro-5H-thieno[2,3-c]pyrrol-5-yl)-2-methyl-2-(methylsulfonyl)butanamide] | 2 (≈ 4.17 µM) | 1 (≈ 2.09 µM) | 0.5 (≈ 1.04 µM) | 
13 | C[C@@](CCN1Cc2cc(C#CC#CC3CN(C4COC4)C3)sc2C1=O)(C(=O)NO)S(C)(=O)=O [Example 15, (2R)—N-hydroxy-2-methyl-2-(methylsulfonyl)-4-(2-((1-(oxetan-3-yl)azetidin-3-yl)buta-1,3-diyn-1-yl)-6-oxo-4,6-dihydro-5H-thieno[2,3-c]pyrrol-5-yl)butanamide] | 4 (≈ 8.14 µM) | 4 (≈ 8.14 µM) | 0.5 (≈ 1.02 µM) | 
14 | C[C@@](CCN1Cc2cc(C#CC#CC3CN([C@@H]4CCOC4)C3)sc2C1=O)(C(=O)NO)S(C)(=O)=O (single isomer, unassigned) [Example 37] | 0.5 (≈ 0.989 µM) | 1 (≈ 1.98 µM) | 0.5 (≈ 0.989 µM) | 
15 | C[C@@](CCN1Cc2cc(C#CC#CC3(N)CC3)ccc2C1=O)(C(=O)NO)S(C)(=O)=O [Example 13, (2R)-4-(5-((1-aminocyclopropyl)buta-1,3-diyn-1-yl)-1-oxoisoindolin-2-yl)-N-hydroxy-2-methyl-2-(methylsulfonyl)butanamide] | 1 (≈ 2.33 µM) | 1 (≈ 2.33 µM) | 0.5 (≈ 1.16 µM) | 
16 | C[C@@](CCN1Cc2cc(C#Cc3ccc(C4CN(C5COC5)C4)cc3)sc2C1=O)(C(=O)NO)S(C)(=O)=O [Example 26, (2R)—N-hydroxy-2-methyl-2-(methylsulfonyl)-4-(2-((4-(1-(oxetan-3-yl)azetidin-3-yl)phenyl)ethynyl)-6-oxo-4,6-dihydro-H-thieno[2,3-c]pyrrol-5-yl)butanamide] |  |  |  | MIC for K. Pneumoniae A-651 [1]: 0.25 µg/mL; MIC for P. aeruginosa ATCC27853 [2]: 2 µg/mL; MIC for E. coli ATCC25922 [3]: 0.25 µg/mL
17 | CN(C)CC(=O)OC[C@H]1C[C@@H]1C#CC#Cc1cc2c(s1)C(=O)N(CC[C@](C)(C(=O)NO)S(C)(=O)=O)C2 [Example 20, ((1S,2S)-2-((5-((3R)-4-(hydroxyamino)-3-methyl-3-(methylsulfonyl)-4-oxobutyl)-6-oxo-5,6-dihydro-4H-thieno[2,3-c]pyrrol-2-yl)buta-1,3-diyn-1-yl)cyclopropyl)methyl dimethylglycinate] | 0.25 (≈ 0.467 µM) | 1 (≈ 1.87 µM) | 0.125 (≈ 0.233 µM) | 
18 | C[C@@](CCN1Cc2cc(C#CC#C[C@H]3C[C@@H]3CN3CC(F)C3)sc2C1=O)(C(=O)NO)S(C)(=O)=O [Example 30, (2R)-4-(2-(((1S,2S)-2-((3-fluoroazetidin-1-yl)methyl)cyclopropyl)buta-1,3-diyn-1-yl)-6-oxo-4,6-dihydro-5H-thieno[2,3-c]pyrrol-5-yl)-N-hydroxy-2-methyl-2-(methylsulfonyl)butanamide] | 1 (≈ 1.97 µM) | 2 (≈ 3.94 µM) | 0.125 (≈ 0.246 µM) | 
19 | C[C@@](CCN1Cc2cc(C#CC#CC3CN([C@H]4CCOC4)C3)sc2C1=O)(C(=O)NO)S(C)(=O)=O (single isomer, unassigned) [Example 38] | 0.25 (≈ 0.494 µM) | 1 (≈ 1.98 µM) | 0.25 (≈ 0.494 µM) | 
20 | CN1CC(C#CC#Cc2ccc3c(c2)CN(CC[C@](C)(C(=O)NO)S(C)(=O)=O)C3=O)C1 [Example 8, (2R)—N-hydroxy-2-methyl-4-(5-((1-methylazetidin-3-yl)buta-1,3-diyn-1-yl)-1-oxoisoindolin-2-yl)-2-(methylsulfonyl)butanamide] | 2 (≈ 4.51 µM) | 1 (≈ 2.25 µM) | 1 (≈ 2.25 µM) | 
21 | COc1ccc(-c2ccc3c(c2)CN(CC[C@](C)(C(=O)NO)S(C)(=O)=O)C3=O)c(F)c1 [Example 10, (2R)-4-(5-(2-fluoro-4-methoxyphenyl)-1-oxoisoindolin-2-yl)-N-hydroxy-2-methyl-2-(methylsulfonyl)butanamide] | 0.063 (≈ 0.14 µM) | 8 (≈ 17.8 µM) | 0.125 (≈ 0.277 µM) | 
